According to patent publication US7670767B1, “Genetic alterations associated with cancer” (The Regents of the University of California, priority 1997, dated 2010):

What was measured:
OVCAR3 cells [1] = assay: MTT viability assay; assay type: cell-based, human
Procedure: NOE, MC[MUT] or OVCAR3 (as indicated) were starved of serum overnight and then cultured in 0.5% serum. […] Cell proliferation and viability assay was assessed before and after treatment with the PI3-kinase inhibitor LY294002 as follows. Cells were cultured in 96-well plates (15×10^3 cells/well) and serum starved overnight prior to the addition of LY294002 (Calbiochem) at various concentrations. […] For viability assay, cells were incubated with LY294002 as described above for 96 hours. MTT (25 ml of 5 ml/ml in PBS) was added to each well and incubated at 37° C. for 2 hours. Cells were then lysed by addition of 100 ml lysis buffer (20% SDS in 50% N,N-dimethylformamide, pH4.7). The cultures were set at 37° C. overnight and measured by microplate reader at 570 nm wavelength. Percent Maximum was converted from OD570 as indicated above.

OVCAR3 cells [2] = assay: programmed cell death, fluorescence based measurement of free DNA ends (Apo direct); design: species or system human
Procedure: This decrease in viability (FIG. 5B) was associated with an increased rate of programmed cell death at 24 (24% vs 51%) and 48 hour (22% vs 52%) as assessed by a fluorescence based measurement of free DNA ends Apo direct, Phoenix Flow Systems.

O=c1cc(N2CCOCC2)oc2c(-c3ccccc3)cccc12 [LY294002]
times more sensitive to the effect of LY294002 (OVCAR3 vs NOE or MCF10F) (OVCAR3 cells [1]; in serum free media): 100 times | times more sensitive to the effect of LY294002 (OVCAR3 vs NOE or MCF10F) (OVCAR3 cells [1]; in the presence of 0.5% FCS): 10 times | rate of programmed cell death (OVCAR3 cells [2]; 24 hour, printed as 24% vs 51%): 51% | rate of programmed cell death (OVCAR3 cells [2]; 48 hour, printed as 22% vs 52%): 52%
